In experiment [1] the target is T1, human adenosine A1 receptor (Homo sapiens, UniProt P30542).
T1 construct: expressed in transfected cells; host or cells: HEK293 cells infected with BacMam (the same paragraph also labels the preparation CHO-hA1)
T1 sequence (P30542 1-326): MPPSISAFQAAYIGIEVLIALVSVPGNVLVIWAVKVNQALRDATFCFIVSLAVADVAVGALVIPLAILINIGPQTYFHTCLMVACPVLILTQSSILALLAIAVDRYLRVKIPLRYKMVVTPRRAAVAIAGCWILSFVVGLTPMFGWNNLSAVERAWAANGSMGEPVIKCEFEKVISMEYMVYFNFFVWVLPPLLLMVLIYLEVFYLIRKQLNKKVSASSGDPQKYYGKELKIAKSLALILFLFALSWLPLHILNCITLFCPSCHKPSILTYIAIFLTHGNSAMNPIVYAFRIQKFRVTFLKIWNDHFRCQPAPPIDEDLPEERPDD
The experiment can be described thus: Inhibition binding assay, human adenosine A1 receptor membranes, [3H]DPCPX. Conditions: 1 nM [3H]DPCPX, 25° C., 1 h; IC50 converted to Ki with Cheng-Prusoff; read-out: A1 pKi (converted). In a few lines: (§1)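 Membranes from BacMam-infected HEK293 cells (0.2 μg A2A, 1.4 μg A1) incubated 1 h at 25° C with test compound and 1 nM [3H]ZM241385 (A2A; 50 mM Tris-HCl pH 7.4) or [3H]DPCPX (A1; plus 100 mM NaCl, 10 mM MgCl2). Nonspecific: 1 μM CGS15943 or DPCPX. Filtration, scintillation; IC50 converted to Ki via Cheng-Prusoff.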

Experiment [2] addresses T2, human adenosine A2A receptor (Homo sapiens, UniProt P29274).
T2 construct: expressed in transfected cells; host or cells: HEK293 cells infected with BacMam
Put plainly: Inhibition binding assay, human adenosine A2A receptor membranes, [3H]ZM241385. The settings on record: 1 nM [3H]ZM241385, HEK293-hA2A membranes, 25° C., 1 h; IC50 converted to Ki with Cheng-Prusoff; read-out: A2A pKi (converted). In outline: as §1

The values below come from patent publication US12528815B2, “5-amino-8-(4-pyridyl)-[1,2,4]triazolo[4,3-c]pyrimidin-3-one compounds for use against cancer” (Nxera Pharma UK Limited, priority 2020, dated 2026).

T2 sequence (P29274 whole entry): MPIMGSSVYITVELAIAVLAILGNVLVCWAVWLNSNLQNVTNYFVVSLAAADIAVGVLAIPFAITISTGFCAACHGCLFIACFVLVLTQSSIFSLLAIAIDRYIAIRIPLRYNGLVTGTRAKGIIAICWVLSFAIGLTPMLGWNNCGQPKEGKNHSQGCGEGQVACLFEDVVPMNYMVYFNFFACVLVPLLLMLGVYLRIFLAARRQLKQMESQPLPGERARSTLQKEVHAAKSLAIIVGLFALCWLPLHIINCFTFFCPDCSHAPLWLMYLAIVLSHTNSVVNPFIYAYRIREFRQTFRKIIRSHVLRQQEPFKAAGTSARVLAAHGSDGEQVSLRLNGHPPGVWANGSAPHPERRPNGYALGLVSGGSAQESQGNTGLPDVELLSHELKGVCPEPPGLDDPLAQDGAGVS

`CCC(c1ccc(F)cn1)n1nc2c(-c3cc(C)nc(C)c3)c(-c3ccccc3)nc(N)n2c1=O` (racemic) [Example 1-38, 5-amino-8-(2,6-dimethyl-4-pyridyl)-2-[1-(5-fluoro-2-pyridyl)propyl]-7-phenyl-[1,2,4]triazolo[4,3-c]pyrimidin-3-one]: the results for the Ki in experiment [1] and in experiment [2] were 1000 nM and 100 nM, respectively.

Take `Cc1cc(-c2c(-c3ccncc3)nc(N)n3c(=O)n(CCC(F)(F)F)nc23)cc(C)n1` [Example 2-38, 5-amino-8-(2,6-dimethyl-4-pyridyl)-7-(4-pyridyl)-2-(3,3,3-trifluoropropyl)-[1,2,4]triazolo[4,3-c]pyrimidin-3-one]: the Ki was > 3980 nM in experiment [1] and 39.8 nM in experiment [2].

For the molecule `COc1cc(-c2c(-c3ccc(F)cc3)nc(N)n3c(=O)n(Cc4ccc(Cl)cn4)nc23)cc(CO)n1` [Example 1-68, 5-amino-2-[(5-chloro-2-pyridyl)methyl]-7-(4-fluorophenyl)-8-[2-(hydroxymethyl)-6-methoxy-4-pyridyl]-[1,2,4]triazolo[4,3-c]pyrimidin-3-one], the results for the Ki in experiment [1] and in experiment [2] were > 1580 nM and 1.26 nM, respectively.

For `Nc1nc(-c2ccccc2)c(-c2cc(Cl)nc(CO)c2)c2nn(CCC(F)(F)F)c(=O)n12` [Example 2-45, 5-amino-8-[2-chloro-6-(hydroxymethyl)-4-pyridyl]-7-phenyl-2-(3,3,3-trifluoropropyl)-[1,2,4]triazolo[4,3-c]pyrimidin-3-one], the Ki in experiment [1] is 316 nM; in experiment [2] it was 0.251 nM.

Take `Cc1cc(-c2c(-c3ccc(F)cc3F)nc(N)n3c(=O)n(CCC(F)(F)F)nc23)cc(C)n1` [Example 2-34, 5-amino-7-(2,4-difluorophenyl)-8-(2,6-dimethyl-4-pyridyl)-2-(3,3,3-trifluoropropyl)-[1,2,4]triazolo[4,3-c]pyrimidin-3-one]: the Ki is > 3980 nM in experiment [1] and 15.8 nM in experiment [2].

`Cc1cc(-c2c(-c3ccccc3)nc(N)n3c(=O)n(Cc4ccc(F)cn4)nc23)cc(C(F)(F)F)n1` [Example 1-72, 5-amino-2-[(5-fluoro-2-pyridyl)methyl]-8-[2-methyl-6-(trifluoromethyl)-4-pyridyl]-7-phenyl-[1,2,4]triazolo[4,3-c]pyrimidin-3-one]: the Ki in experiment [1] is 126 nM; in experiment [2], 2.51 nM.

Take `Cc1cc(-c2c(-c3ccccc3)nc(N)n3c(=O)n(CCc4ccccc4)nc23)cc(N2CCC2)n1` [Example 1-90, 5-amino-8-[2-(azetidin-1-yl)-6-methyl-4-pyridyl]-7-phenyl-2-(2-phenylethyl)-[1,2,4]triazolo[4,3-c]pyrimidin-3-one]: the Ki in experiment [1] is 398 nM; in experiment [2], 12.6 nM.

For `Cc1cc(-c2c(-c3ccccc3)nc(N)n3c(=O)n(Cc4ccccc4CC4CCNCC4)nc23)cc(C)n1` [Example 1-32, 5-amino-8-(2,6-dimethyl-4-pyridyl)-7-phenyl-2-[[2-(4-piperidylmethyl)phenyl]methyl]-[1,2,4]triazolo[4,3-c]pyrimidin-3-one], the Ki in experiment [1] is 3.98 nM; in experiment [2], 0.126 nM.

Take `Cc1cc(-c2c(-c3ccccc3)nc(N)n3c(=O)n(C(C)Cc4ccccc4)nc23)cc(C)n1` (stereo not drawn) [Example 1-81, 5-amino-8-(2,6-dimethyl-4-pyridyl)-2-(1-methyl-2-phenyl-ethyl)-7-phenyl-[1,2,4]triazolo[4,3-c]pyrimidin-3-one]: the Ki in experiment [1] was 631 nM; in experiment [2], 25.1 nM.

On to `Cc1cc(-c2c(-c3ccccc3)nc(N)n3c(=O)n(Cc4c(F)cccc4F)nc23)cc(C)n1` [Example 1-23, 5-amino-2-[(2,6-difluorophenyl)methyl]-8-(2,6-dimethyl-4-pyridyl)-7-phenyl-[1,2,4]triazolo[4,3-c]pyrimidin-3-one], for which the Ki is 3.16 nM in experiment [1] and 0.1 nM in experiment [2].

As to `Cc1cc(-c2c(-c3ccccc3)nc(N)n3c(=O)n(Cc4cccnc4-n4cccn4)nc23)cc(C)n1` [Example 1-19, 5-amino-8-(2,6-dimethyl-4-pyridyl)-7-phenyl-2-[(2-pyrazol-1-yl-3-pyridyl)methyl]-[1,2,4]triazolo[4,3-c]pyrimidin-3-one], the results for the Ki in experiment [1] and in experiment [2] were 100 nM and 1.26 nM, respectively.

`Cc1cc(-c2c(-c3ccccc3)nc(N)n3c(=O)n(CC4CCCCO4)nc23)cc(C)n1` (single isomer, unassigned) [Example 2-82-iso-1, 5-amino-8-(2,6-dimethyl-4-pyridyl)-7-phenyl-2-(tetrahydropyran-2-ylmethyl)-[1,2,4]triazolo[4,3-c]pyrimidin-3-one]: the results for the Ki in experiment [1] and in experiment [2] were 126 nM and 1.58 nM, respectively.

On to `Cc1cc(-c2c(-c3ccccc3)nc(N)n3c(=O)n(CCN4C[C@@H](C)O[C@@H](C)C4)nc23)cc(C)n1` [Example 2-100, 5-amino-2-[2-((ds)-2,6-dimethylmorpholin-4-yl)ethyl]-8-(2,6-dimethyl-4-pyridyl)-7-phenyl-[1,2,4]triazolo[4,3-c]pyrimidin-3-one], for which the Ki in experiment [1] was > 3160 nM; in experiment [2], 316 nM.

On to `Cc1cc(-c2c(-c3ccccc3)nc(N)n3c(=O)n(CCCF)nc23)cc(C)n1` [Example 2-8, 5-amino-8-(2,6-dimethyl-4-pyridyl)-2-(3-fluoropropyl)-7-phenyl-[1,2,4]triazolo[4,3-c]pyrimidin-3-one], for which the Ki was 316 nM in experiment [1] and 1.58 nM in experiment [2].

With `Cc1ccc(NC2CCN(CCn3nc4c(-c5cc(C)nc(C)c5)c(-c5ccccc5)nc(N)n4c3=O)CC2)nc1` [Example 1-97, 5-amino-8-(2,6-dimethyl-4-pyridyl)-2-[2-[4-[(5-methyl-2-pyridyl)amino]-1-piperidyl]ethyl]-7-phenyl-[1,2,4]triazolo[4,3-c]pyrimidin-3-one], the Ki in experiment [1] is > 3980 nM; in experiment [2], 63.1 nM.

As to `COC(=O)CCn1nc2c(-c3cc(C)nc(C)c3)c(-c3ccccc3)nc(N)n2c1=O` [Example 2-15, methyl 3-[5-amino-8-(2,6-dimethyl-4-pyridyl)-3-oxo-7-phenyl-[1,2,4]triazolo[4,3-c]pyrimidin-2-yl]propanoate], the Ki is 501 nM in experiment [1] and 5.01 nM in experiment [2].

As for `Cc1cc(-c2c(-c3ccccc3)nc(N)n3c(=O)n(CC4CCCS(=O)(=O)C4)nc23)cc(C)n1` (single isomer, unassigned) [Example 2-89-iso-1, 5-amino-8-(2,6-dimethyl-4-pyridyl)-2-[(1,1-dioxothian-3-yl)methyl]-7-phenyl-[1,2,4]triazolo[4,3-c]pyrimidin-3-one], the figures for the Ki in experiment [1] and in experiment [2] were 398 nM and 10 nM, respectively.

Turning to `Cc1cc(-c2c(-c3ccccc3)nc(N)n3c(=O)n(Cc4ccc(F)cc4C)nc23)cc(C)n1` [Example 1-18, 5-amino-8-(2,6-dimethyl-4-pyridyl)-2-[(4-fluoro-2-methyl-phenyl)methyl]-7-phenyl-[1,2,4]triazolo[4,3-c]pyrimidin-3-one], the Ki in experiment [1] was 10 nM; in experiment [2], 0.0794 nM.

`Cc1cc(-c2c(-c3ccccc3)nc(N)n3c(=O)n(CCN(C)C4CCN(c5ccccc5)CC4)nc23)cc(C)n1` [Example 1-93, 5-amino-8-(2,6-dimethyl-4-pyridyl)-2-[2-[methyl-(1-phenyl-4-piperidyl)amino]ethyl]-7-phenyl-[1,2,4]triazolo[4,3-c]pyrimidin-3-one]: the figures for the Ki in experiment [1] and in experiment [2] were 631 nM and 31.6 nM, respectively.

Consider `Cc1cc(-c2c(-c3ccccc3)nc(N)n3c(=O)n(CC4CCN(C(=O)OC(C)(C)C)CC4)nc23)cc(C)n1` [Example 2-67, tert-butyl 4-[[5-amino-8-(2,6-dimethyl-4-pyridyl)-3-oxo-7-phenyl-[1,2,4]triazolo[4,3-c]pyrimidin-2-yl]methyl]piperidine-1-carboxylate], for which the Ki was 1000 nM in experiment [1] and 6.31 nM in experiment [2].

For `Cc1cc(-c2c(-c3ccccc3)nc(N)n3c(=O)n(C)nc23)cc(C)n1` [Example 2-2, 5-amino-8-(2,6-dimethyl-4-pyridyl)-2-methyl-7-phenyl-[1,2,4]triazolo[4,3-c]pyrimidin-3-one], the Ki is 200 nM in experiment [1] and 5.01 nM in experiment [2].

Regarding `Cc1cc(-c2c(-c3ccccc3)nc(N)n3c(=O)n(Cc4cccc(F)c4Cl)nc23)cc(C)n1` [Example 1-21, 5-amino-2-[(2-chloro-3-fluoro-phenyl)methyl]-8-(2,6-dimethyl-4-pyridyl)-7-phenyl-[1,2,4]triazolo[4,3-c]pyrimidin-3-one], the Ki in experiment [1] was 10 nM; in experiment [2] it was 0.501 nM.

`Cc1cc(-c2c(-c3ccccc3)nc(N)n3c(=O)n(CC(C)C)nc23)cc(C)n1` [Example 2-21, 5-amino-8-(2,6-dimethyl-4-pyridyl)-2-isobutyl-7-phenyl-[1,2,4]triazolo[4,3-c]pyrimidin-3-one]: the Ki in experiment [1] was 1000 nM; in experiment [2] it was 2.51 nM.

For `Cc1cc(-c2c(Cl)nc(N)n3c(=O)n(CCC(F)(F)F)nc23)cc(C)n1` [Example 3-5, 5-amino-7-chloro-8-(2,6-dimethyl-4-pyridyl)-2-(3,3,3-trifluoropropyl)-[1,2,4]triazolo[4,3-c]pyrimidin-3-one], the Ki is > 3160 nM in experiment [1] and 631 nM in experiment [2].
